The text below walks through data of patent US8722849B2, “Polypeptides” (Novo Nordisk A/S, priority 2011, dated 2014).

Structures are written as SMILES. Like-named read-outs stand apart in the source and are kept apart here. Starred links: 1 amine or outer side, 2 acyl side, 3 side chain; linkers in the order of their positions; H or OH if unused. Positions of bridges follow the written chain, without caps; N, C: chain ends. Residues, ends and D or L forms follow the SMILES beside them. *: point of attachment. C20 diacid = O=C(O)CCCCCCCCCCCCCCCCCCC(=O)*; γGlu = O=C(O)[C@H](CCC(=O)[*:2])N[*:1] Some results are limits rather than exact numbers.

The term EC50 denotes the concentration that produces a half-maximal response. What is called solubility is how much of the substance goes into solution per volume.

The target of series [1] is T1, human calcitonin receptor (Homo sapiens, UniProt P30988).
T1 construct: expressed in transfected cells; host or cells: BHK570
T1 sequence (P30988 25-474): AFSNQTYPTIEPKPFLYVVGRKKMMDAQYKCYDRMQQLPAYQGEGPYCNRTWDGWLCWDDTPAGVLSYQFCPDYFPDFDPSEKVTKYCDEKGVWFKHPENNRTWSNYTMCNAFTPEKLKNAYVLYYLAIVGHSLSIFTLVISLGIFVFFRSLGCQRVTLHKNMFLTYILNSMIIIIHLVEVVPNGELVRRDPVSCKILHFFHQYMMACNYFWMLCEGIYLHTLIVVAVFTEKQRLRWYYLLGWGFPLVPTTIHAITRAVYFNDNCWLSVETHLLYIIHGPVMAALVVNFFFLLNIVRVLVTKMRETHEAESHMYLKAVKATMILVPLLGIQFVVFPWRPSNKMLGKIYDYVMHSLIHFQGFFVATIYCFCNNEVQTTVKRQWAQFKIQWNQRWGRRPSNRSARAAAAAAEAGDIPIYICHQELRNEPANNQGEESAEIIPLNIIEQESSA
The series can be described thus: Assay (II)a functional CRE-luciferase assay, human calcitonin receptor. The format is cell-based. The conditions noted are these: Table 7; human calcitonin (CTa) receptor.

Series [2] deals with T2, rat amylin 3(a) receptor (rat calcitonin(a) receptor + rat RAMP3) (Rattus norvegicus, UniProt P32214+Q9JJ73).
T2 construct: expressed in transfected cells; host or cells: BHK tk'ts 13
T2 sequence (P32214 25-479 isoform P32214-2 limits assumed): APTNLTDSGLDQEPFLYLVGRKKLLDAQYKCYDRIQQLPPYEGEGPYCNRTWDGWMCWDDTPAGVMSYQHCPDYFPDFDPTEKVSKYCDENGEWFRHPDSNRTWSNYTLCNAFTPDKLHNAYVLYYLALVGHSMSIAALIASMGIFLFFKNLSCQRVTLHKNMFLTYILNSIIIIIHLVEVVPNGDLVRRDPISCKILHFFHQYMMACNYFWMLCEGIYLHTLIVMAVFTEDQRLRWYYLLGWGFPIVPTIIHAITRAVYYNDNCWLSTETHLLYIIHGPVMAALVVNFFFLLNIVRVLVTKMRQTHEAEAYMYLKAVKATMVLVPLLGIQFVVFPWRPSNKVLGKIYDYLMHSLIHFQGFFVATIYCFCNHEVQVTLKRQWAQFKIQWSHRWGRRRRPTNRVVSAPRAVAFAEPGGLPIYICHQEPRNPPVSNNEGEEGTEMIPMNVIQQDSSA
T2 sequence (Q9JJ73 23-147 partner): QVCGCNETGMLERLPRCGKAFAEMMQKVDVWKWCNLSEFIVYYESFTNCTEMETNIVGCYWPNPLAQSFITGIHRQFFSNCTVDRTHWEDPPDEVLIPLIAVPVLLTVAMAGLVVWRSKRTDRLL
Briefly: Assay (II)b functional cAMP FlashPlate assay, rat amylin receptor. The format is cell-based. The conditions noted are these: Table 11. The gist of the method:
(§1)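 BHK tk'ts 13 cells transiently transfected with rat calcitonin(a) receptor, alone or with rat RAMP3 (amylin 3(a)), were stimulated 24 hours later with sample for 30 min in buffer containing IBMX. cAMP measured by competitive radioactive FlashPlate assay, scintillation read after 3 h detection incubation.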

Series [3] addresses T3, human amylin receptor (amylin 3(a) receptor: human calcitonin receptor + RAMP-3) (Homo sapiens, UniProt O60896+P30988).
T3 construct: expressed in transfected cells; host or cells: BHK570
T3 sequence (P30988 25-474): T1 sequence (P30988 25-474)
T3 sequence (O60896 24-148 partner): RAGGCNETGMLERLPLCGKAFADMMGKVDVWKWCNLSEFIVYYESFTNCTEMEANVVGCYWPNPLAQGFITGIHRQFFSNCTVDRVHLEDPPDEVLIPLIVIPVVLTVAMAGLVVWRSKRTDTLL
Briefly: Assay (II)a functional CRE-luciferase assay, human amylin receptor. The series is classed as cell-based. The conditions noted are these: Table 2; BHK amylin 3(a)-receptor/CRE-luc cells.

In series [4] the target is T4, rat calcitonin (a) receptor (Rattus norvegicus, UniProt P32214).
T4 construct: expressed in transfected cells; host or cells: BHK tk'ts 13
T4 sequence (P32214 25-479 isoform P32214-2 limits assumed): T2 sequence (P32214 25-479 isoform P32214-2 limits assumed)
The series can be described thus: Assay (II)b functional cAMP FlashPlate assay, rat calcitonin receptor. The format is cell-based. The note with it: Table 11; read-out: CTa receptor rat EC50. The procedure, abridged: as §1

Series [5] can be described thus: Assay (IV) determination of solubility. The series is classed as physicochemical. The gist of the method: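 Polypeptide in water (~500 nmol/ml) mixed 1:1 with 100 mM glycylglycine (pH 3.0–5.0) or bistrispropane (pH 6.0–8.0) buffers. Held 18 hours at room temperature, then centrifuged. Polypeptide remaining in solution quantified by HPLC.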

As to `CC[C@H](C)[C@H](NC(=O)[C@@H]1CCCN1C(=O)CNC(=O)[C@H](Cc1ccccc1)NC(=O)[C@H](CC(N)=O)NC(=O)[C@H](CC(N)=O)NC(=O)[C@H](CO)NC(=O)[C@H](CO)NC(=O)[C@H](Cc1c[nH]cn1)NC(=O)[C@H](Cc1c[nH]cn1)NC(=O)[C@H](CC(C)C)NC(=O)[C@H](Cc1ccccc1)NC(=O)[C@H](CCC(=O)O)NC(=O)[C@H](C)NC(=O)[C@H](CC(C)C)NC(=O)[C@H](CCCNC(=N)N)NC(=O)[C@H](CCC(N)=O)NC(=O)[C@@H](NC(=O)[C@H](C)NC(=O)[C@@H]1CSSC[C@H](NC(=O)[C@H](CCCNC(=N)N)NC(=O)CNC(=O)CC[C@H](NC(=O)CCCCCCCCCCCCCCCCCCC(=O)O)C(=O)O)C(=O)N[C@@H](CC(N)=O)C(=O)N[C@@H]([C@@H](C)O)C(=O)N[C@@H](C)C(=O)N[C@@H]([C@@H](C)O)C(=O)N1)[C@@H](C)O)C(=O)N[C@@H](CC(C)C)C(=O)N1CCC[C@H]1C(=O)N1CCC[C@H]1C(=O)N[C@H](C(=O)N[C@@H](CC(N)=O)C(=O)N[C@H](C(=O)NCC(=O)N[C@@H](CO)C(=O)N[C@@H](CC(N)=O)C(=O)N[C@H](C(=O)N1CCC[C@H]1C(N)=O)[C@@H](C)O)C(C)C)[C@@H](C)O` [Example 101, N-alpha-[(S)-4-Carboxy-4-(19-carboxynonadecanoylamino)butyryl]-Gly-[Arg1,Glu14,His17,Pro37]-pramlintide] ({C20 diacid-γGlu}-GRCNTATCATQRLAEFLHHSSNNFGPILPPTNVGSNTP-NH2; disulfide 3-8 (inferred)), the concentration for a half-maximal effect (EC50) in series [1] is 45.5 pM; in series [2] it was 75 pM; in series [3] it was 51.5 pM; in series [4], 44 pM. Moreover, the solubility at 18 h in series [5] (bistrispropane buffer, pH 6, pH 6.0, read-out: Solubility pH 6.0) is greater than 200 µM; in series [5] (bistrispropane buffer, pH 6.5, pH 6.5, read-out: Solubility pH 6.5) it was greater than 200 µM; in series [5] (bistrispropane buffer, pH 7, pH 7.0, 18 hours at room temperature, Table 3, read-out: Solubility pH 7.0) it was greater than 200 µM; in series [5] (bistrispropane buffer, pH 7, pH 7.0, Table 8, read-out: Solubility pH 7.0) it was greater than 200 µM; in series [5] (bistrispropane buffer, pH 7, pH 7.0, Table 9, read-out: Solubility pH 7.0), greater than 200 µM; in series [5] (bistrispropane buffer, pH 7, pH 7.0, read-out: Solubility pH 7.0), greater than 200 µM. The solubility at 18 h is greater than 200 µM in series [5] (bistrispropane buffer, pH 7.5, pH 7.5, Table 9, read-out: Solubility pH 7.5); greater than 200 µM in series [5] (bistrispropane buffer, pH 7.5, pH 7.5, read-out: Solubility pH 7.5); greater than 200 µM in series [5] (bistrispropane buffer, pH 8, pH 8.0, read-out: Solubility pH 8.0); greater than 200 µM in series [5] (glycylglycine buffer, pH 3, pH 3.0, read-out: Solubility pH 3.0); greater than 200 µM in series [5] (glycylglycine buffer, pH 4, pH 4.0, 18 hours at room temperature, Table 2, read-out: Solubility pH 4.0); greater than 200 µM in series [5] (glycylglycine buffer, pH 4, pH 4.0, read-out: Solubility pH 4.0). Further, in series [5] (glycylglycine buffer, pH 5, pH 5.0, read-out: Solubility pH 5.0), the solubility at 18 h was greater than 200 µM.
